Measured values taken from ChEMBL document CHEMBL1201862, “PubChem BioAssay data set” (2004).
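Step 1: Grow cells in 96-well plates. Step 2: Expose to compound for 48 hours at 5 concentrations. Step 3: Interpolate endpoints linearly; if unreached, use highest concentration. GI50 marks 50% less growth.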 The source made the active and inactive calls. No stated cut-off is given here; in the data, active = GI50 up to about 1.1 µM and inactive = higher.

What was measured:
Assay in all cases: growth of human tumour cells (NCI), 48 h
MDA-MB-231 = tested on: MDA-MB-231
MCF7 = tested on: MCF7
HOP-92 = tested on: HOP-92
HCT-15 = tested on: HCT-15
PC-3 = tested on: PC-3
KM12 = tested on: KM12
SK-OV-3 = tested on: SK-OV-3
SR = tested on: SR
DU-145 = tested on: DU-145
BT-549 = tested on: BT-549
MDA-MB-435 = tested on: MDA-MB-435
NCI/ADR-RES = tested on: NCI/ADR-RES
NCI-H226 = tested on: NCI-H226
A498 = tested on: A498
Hs-578T = tested on: Hs-578T
ACHN = tested on: ACHN

SMILES | GI50 (MDA-MB-231) | GI50 (MCF7) | GI50 (HOP-92) | GI50 (HCT-15) [µM] | GI50 (PC-3) | GI50 (KM12) | GI50 (SK-OV-3) | GI50 (SR) | GI50 (DU-145) | GI50 (BT-549) | GI50 (MDA-MB-435) | GI50 (NCI/ADR-RES) | GI50 (NCI-H226) | GI50 (A498) | GI50 (Hs-578T) | GI50 (ACHN)
CC(=O)NC1CC(C(C)(C)NC(C)=O)CC=C1C (configuration not stated) | > 100 µM (inactive) | > 100 µM (inactive) | > 100 µM (inactive) | > 100 | > 100 µM (inactive) | > 100 µM (inactive) | > 100 µM (inactive) | > 100 µM (inactive) | > 100 µM (inactive) | > 100 µM (inactive) | > 100 µM (inactive) | > 100 µM (inactive) |  |  |  | 
CC1C(NNC(N)=O)Oc2cc3c(cc2C1c1ccccc1O)OCO3 (configuration not stated) | 55.7 µM (inactive) | 36.8 µM (inactive) | 16.5 µM (inactive) | 33.6 | 24.5 µM (inactive) | 31.2 µM (inactive) | 41.4 µM (inactive) | 15 µM (inactive) | 49.7 µM (inactive) | 52.6 µM (inactive) | 20.5 µM (inactive) |  | 34.6 µM (inactive) | 25.9 µM (inactive) | 25.3 µM (inactive) | 39.5 µM (inactive)
Cc1ccc(S(=O)(=O)NNC2Oc3cc4c(cc3C(c3ccccc3O)C2C)OCO4)cc1 (configuration not stated) | 16 µM (inactive) | 14.9 µM (inactive) | 17.1 µM (inactive) | 4.9 | 10.1 µM (inactive) | 12.2 µM (inactive) | 21.7 µM (inactive) | 13.3 µM (inactive) | 13 µM (inactive) | 13 µM (inactive) | 13 µM (inactive) |  | 12.4 µM (inactive) | 16.8 µM (inactive) | 10.9 µM (inactive) | 13.2 µM (inactive)
[C-]#[N+]C(=C\c1ccc(O)cc1)/C(=C/c1ccc(O)cc1)[N+]#[C-] [XANTOCILLIN] | 2.74 µM (inactive) | 1.55 µM (inactive) | 2.9 µM (inactive) | 1.45 | 3.65 µM (inactive) | 2.16 µM (inactive) | 3.39 µM (inactive) | 1.67 µM (inactive) | 2.53 µM (inactive) | 2.41 µM (inactive) | 1.28 µM (inactive) | 2.44 µM (inactive) | 2.37 µM (inactive) | 3.06 µM (inactive) | 0.718 µM (active) | 2.03 µM (inactive)
CC12Nc3ccccc3N1C(=O)c1ccccc12 (configuration not stated) | > 100 µM (inactive) | > 100 µM (inactive) | > 100 µM (inactive) | > 100 | > 100 µM (inactive) | > 100 µM (inactive) | > 100 µM (inactive) | > 100 µM (inactive) | 88.1 µM (inactive) | > 100 µM (inactive) | > 100 µM (inactive) | > 100 µM (inactive) | > 100 µM (inactive) | > 100 µM (inactive) | > 100 µM (inactive) | > 100 µM (inactive)
COc1ccc(C(c2cc3c(cc2O)OCO3)N2CCOCC2)cc1OC (configuration not stated) | 3.5 µM (inactive) | 12.8 µM (inactive) | 16 µM (inactive) | 3.95 | 11.1 µM (inactive) | 12.4 µM (inactive) | 14.1 µM (inactive) | 1.89 µM (inactive) | 12.1 µM (inactive) | 5.28 µM (inactive) | 11.3 µM (inactive) | 5.89 µM (inactive) | 11.1 µM (inactive) |  | 2.75 µM (inactive) | 11.4 µM (inactive)
C=C1C(=O)OC2/C=C(\C)CC/C=C(/C)CC(OC(=O)/C(=C/CO)CO)C12 (configuration not stated) | > 10 µM (inactive) | 19.6 µM (inactive) | 26.7 µM (inactive) | 17.3 | > 100 µM (inactive) | > 100 µM (inactive) | > 100 µM (inactive) | 28.6 µM (inactive) | 17.5 µM (inactive) | 14.3 µM (inactive) | 27.8 µM (inactive) | 32.6 µM (inactive) |  | > 10 µM (inactive) | 39.7 µM (inactive) | 17.8 µM (inactive)
O=C(Nc1ccc(F)cc1)c1cc2ccc(O)cc2o/c1=N\c1ccccc1F |  | 28.8 µM (inactive) |  | 18.9 | 32.3 µM (inactive) | 26.2 µM (inactive) | 12 µM (inactive) | 36.1 µM (inactive) | 34.4 µM (inactive) | 14.8 µM (inactive) | 27.9 µM (inactive) | 15.6 µM (inactive) |  | 37.6 µM (inactive) | 26.8 µM (inactive) | 20 µM (inactive)
CC(=O)O[C@H]1[C@@H](OC(C)=O)C(C)(C)/C=C/[C@H](C)C(=O)[C@@]2(OC(C)=O)C[C@@](C)(OC(C)=O)[C@H](OC(C)=O)[C@@H]2[C@H]2OC(=O)CC[C@@]2(OC(=O)c2ccccc2)[C@@H]1OCC(C)C | > 100 µM (inactive) | 37 µM (inactive) | 0.977 µM (active) | > 100 | 17.5 µM (inactive) | 39.1 µM (inactive) | > 100 µM (inactive) |  | 97.3 µM (inactive) | 67.6 µM (inactive) | 8.39 µM (inactive) | 69 µM (inactive) | 92 µM (inactive) |  | 11.2 µM (inactive) | 15.6 µM (inactive)
O=C1C(=CNC(=S)c2ccccc2)C(=O)c2ccccc21 | 55.2 µM (inactive) | 35.2 µM (inactive) | 40.7 µM (inactive) | 32.1 | 63.2 µM (inactive) | 62.1 µM (inactive) | 21.7 µM (inactive) |  | 57.8 µM (inactive) | 28.1 µM (inactive) | 71.8 µM (inactive) | 61.5 µM (inactive) | > 100 µM (inactive) |  | 54 µM (inactive) | 38.9 µM (inactive)
NC1C2C=CC(C2)C1C(=O)O (configuration not stated) | > 100 µM (inactive) | > 100 µM (inactive) | > 100 µM (inactive) | > 100 | > 100 µM (inactive) | > 100 µM (inactive) | > 100 µM (inactive) |  | > 100 µM (inactive) | > 100 µM (inactive) | > 100 µM (inactive) | > 100 µM (inactive) | > 100 µM (inactive) | > 100 µM (inactive) | > 100 µM (inactive) | > 100 µM (inactive)
NC(CCOCCP(=O)(O)CCC1C=CC=CC1)C(=O)O (configuration not stated) | > 100 µM (inactive) | > 100 µM (inactive) | > 100 µM (inactive) | > 100 | > 100 µM (inactive) | > 100 µM (inactive) | > 100 µM (inactive) | > 100 µM (inactive) | > 100 µM (inactive) | > 100 µM (inactive) | > 100 µM (inactive) | > 100 µM (inactive) |  |  | > 100 µM (inactive) | > 100 µM (inactive)
Cc1cc2nc3c(C)c4ccccc4c(C)n3c2cc1C | 1.62 µM (inactive) | 1.49 µM (inactive) | 2.09 µM (inactive) | 1.97 | 2.96 µM (inactive) | 3.34 µM (inactive) | 7.06 µM (inactive) | 2.96 µM (inactive) | 3.3 µM (inactive) | 6.07 µM (inactive) | 3.02 µM (inactive) | 1.51 µM (inactive) |  |  | 5.56 µM (inactive) | 1.67 µM (inactive)
Cn1c(=O)ccc2c(=O)c3ccccc3oc21 | > 100 µM (inactive) |  | 67.6 µM (inactive) | > 100 | > 100 µM (inactive) | > 100 µM (inactive) | > 100 µM (inactive) | > 100 µM (inactive) | > 100 µM (inactive) |  | > 100 µM (inactive) | > 100 µM (inactive) | > 100 µM (inactive) | > 100 µM (inactive) | > 100 µM (inactive) | > 100 µM (inactive)
